According to paper PMC7765409 (International Journal of Molecular Sciences, 2020):

What was measured:
[1] = system: C/EBPα mRNA expression; test: RT-qPCR gene expression in TG/FA-treated hiPSC-Hep; type: cell-based, human; settings: 24 h pre-treatment then TG/FA 18 h
Protocol: (§1) To explore the signaling partners triggered or altered by the drugs, we performed gene expression RT-qPCR. The hiPSC-Hep were pre-treated in a 24-well plate with the three compounds shown in Figure 7 for 24 h followed by TG/FA challenge for an additional 18 h and RNA from each treatment well was isolated. The pre-treatment paradigm was chosen to stay consistent with how the original HTS was performed. We analyzed several target gene expression levels in the C/EBP-EP300 pathway including CDK2, CDK4, C/EBPα and C/EBPβ, EP300, and diacylglycerol acyltransferase 2 (DGAT2).
(§2) RNA was isolated from hiPSC-derived hepatocytes using the RNeasy kit (Qiagen, Frederick) and subsequently subjected to DNase digestion (Qiagen). Total RNA was quantified using NanoDrop 8000 (Thermo Scientific). The quality of total RNA was assessed by the Agilent Bioanalyzer Nano chip (Agilent Technologies) and RNA integrity number (RIN) ranged from 9.7 to 10. Reverse transcription was performed using the high capacity cDNA reverse transcription kit (Applied Biosystems, Foster City, CA, USA) according to the manufacturer’s recommendation and the complementary DNA (cDNA) obtained used for real-time quantitative PCR. The reaction mixture (10 μL), containing 1 μL of cDNA template, 0.5 μL each of primer and probe (20×, Thermo Fisher Scientific) mix for the gene of interest plus the reference gene and TaqMan Universal PCR master mix (Applied Biosystems) was added to the opaque white 384-well plates and amplified as follows: after 2 min of initial incubation at 50 °C and 10 min of initial denaturation at 95 °C, 45 cycles at 95 °C for 15 s, 60 °C for 1 min for annealing and 1 sec at 72 °C for final extension were performed. Assays were designed to have primers/probes to span exon–exon junctions (Table S1). Direct detection of PCR products was monitored by measuring the fluorescence produced by the result of TaqMan probe hydrolysis after every cycle. All experiments were carried out in triplicate in a LightCycler 480 thermocycler (Roche Diagnostic). Relative gene expression from qPCR data between groups of samples were assessed using a ∆∆Cq method. To adjust for variations in the cDNA synthesis each gene was normalized to that of hypoxanthine phosphoribosyl transferase 1 (HPRT1] or GAPDH mRNA.

[2] = system: CDK2 gene expression; test: RT-qPCR gene expression in TG/FA-treated hiPSC-Hep; type: cell-based, human; settings: 24 h pre-treatment then TG/FA 18 h; relative to TG/FA
Protocol: as §1, §2

[3] = system: CDK4 gene expression; test: RT-qPCR gene expression in TG/FA-treated hiPSC-Hep; type: cell-based, human; settings: 24 h pre-treatment then TG/FA 18 h, relative to TG/FA
Protocol: as §1, §2

[4] = system: EP300 gene expression; test: RT-qPCR gene expression in TG/FA-treated hiPSC-Hep; type: cell-based, human; settings: 24 h pre-treatment then TG/FA 18 h; relative to TG/FA
Protocol: as §1, §2

[5] = system: CDK1; set-up: method as in AstraZeneca data repository; settings: median log of IC50/EC50/Ki/Kd annotations, highest value; ref AstraZeneca data repository; cited from earlier work
[6] = system: CDK2; set-up: method as in AstraZeneca data repository; settings: median log of IC50/EC50/Ki/Kd annotations, highest value; ref AstraZeneca data repository; cited from earlier work
[7] = system: CDK4; set-up: method as in AstraZeneca data repository; settings: median log of IC50/EC50/Ki/Kd annotations, highest value; ref AstraZeneca data repository; cited from earlier work

Cc1ncc(-c2nc(Nc3ccc(N4CCN(C(=O)CO)CC4)cc3)ncc2F)n1C(C)C [C3]
effect on C/EBPα mRNA level ([1]; relative to TG/FA): no effect
effect on CDK2 gene expression [2]: no effect
effect on CDK4 mRNA level [3]: no effect
effect on EP300 gene expression [4]: no effect
pXC50 CDK1 [5]: 7.61
pXC50 CDK2 [6]: 8.24
pXC50 CDK4 [7]: 7.33

CNC(=O)c1nn(C)c2c1C(C)(C)Cc1cnc(Nc3ccc(N4CCN(C)CC4)cc3)nc1-2 [C16, Milciclib]
C/EBPα mRNA expression suppressed by ([1]; 5 µM): 47%
effect on CDK2 gene expression [2]: overall increase
CDK4 gene expression suppressed to ([3]; 5 µM): ~34%
effect on EP300 gene expression [4]: not significantly affected
pXC50 CDK1 [5]: 6.84
pXC50 CDK2 [6]: 7.60
pXC50 CDK4 [7]: 7.16
